# Measurements taken from patent US5360803A, “Composition and method for treating cancer” (Dan Farber Cancer Institute, priority 1992, dated 1994).
# Legend:
# CV-1 cells = experiment: selective killing assay, colony number reduced to 50% of control, normal monkey kidney epithelial cell line CV-1; format: cell-based; details: normal monkey kidney epithelial cells, 24 hours treatment, colony count after 7 to 10 days; for IC50: Primates, CV-1, Table III; for CV-1 (IC50): Table III
# From the text: The control received culture media only.
# CX-1 cells = experiment: selective killing assay, colony number reduced to 50% of control, human colon carcinoma cell line CX-1; format: cell-based; details: for Selectivity (ratio of IC50 for CV-1 and IC50 for CX-1): CV-1/CX-1; for IC50 / CX-1 (IC50): human colon carcinoma, 24 hours treatment, colony count after 7 to 10 days;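 as to all read-outs here: colonies stained with crystal violet and counted, control cells given medium alone, exposure at 37 °C, normal monkey kidney epithelial CV-1 cells as the non-cancer comparator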
Structure (SMILES),IC50 (CV-1 cells) [µg/mL],Selectivity (ratio of IC50 for CV-1 and IC50 for CX-1) (CX-1 cells),"IC50 (CX-1 cells; Homo sapiens, CX-1, Table III) [µg/mL]","IC50 (CX-1 cells; CX-1, Table III) [µg/mL]",CV-1 (IC50) (CV-1 cells) [µg/mL],CX-1 (IC50) (CX-1 cells; Table III) [µg/mL]
CCn1c(=Cc2sc3c4ccccc4ccc3[n+]2CC)sc(=C2SCCN2C)c1=O [Compound 121],20,200,0.1,,,
CCn1c(=Cc2[se]c3ccccc3[n+]2CC)sc(=C2Sc3ccc(Cl)cc3N2C)c1=O [Compound 63],20,100,,0.2,,
CN1C(=c2sc(=Cc3oc4ccccc4[n+]3C)n(C)c2=O)Sc2ccccc21 [Compound 46],10,100,,0.1,,
CCn1c(=Cc2sc3c4ccccc4ccc3[n+]2CC)sc(=C2Sc3c(ccc4ccccc34)N2C)c1=O [Compound 99],10,100,0.1,,,
CCn1c(=Cc2sc3c4ccccc4ccc3[n+]2CC)sc(=C2Sc3ccc(Cl)cc3N2C)c1=O [Compound 54],20,400,0.05,,,
CCn1c(=CC2=[N+](CC)CCS2)sc(=C2Sc3ccc(OC)cc3N2C)c1=O [Compound 65],20,100,0.2,,,
CCn1c(=Cc2sc3ccc4ccccc4c3[n+]2CC)sc(=C2Sc3ccc(C(F)(F)F)cc3N2C)c1=O [Compound 307],6,120,0.05,,,
CC[n+]1c(C=c2sc(=C3Sc4ccccc4N3C)c(=O)n2C2CCCCC2)oc2ccccc21 [Compound 42],2,100,0.02,,,
CCn1c(=Cc2oc3ccccc3[n+]2CC)sc(=C2Sc3ccccc3N2C)c1=O [Compound 34],,267,,,8,0.03
CCn1c(=Cc2sc3ccc4ccccc4c3[n+]2CC)sc(=C2C=Cc3ccccc3N2C)c1=O [Compound 163],20,667,0.03,,,
CCn1c(=Cc2oc3ccc(OC)cc3[n+]2CC)sc(=C2Sc3ccccc3N2C)c1=O [Compound 35],6,150,0.04,,,
CCn1c(=Cc2scc(C)[n+]2CC)sc(=C2Sc3ccccc3N2C)c1=O [Compound 32],6,150,0.04,,,
CCn1c(=Cc2sc3c4ccccc4ccc3[n+]2CC)sc(=C2Oc3ccc4ccccc4c3N2C)c1=O [Compound 115],6,120,0.05,,,
CCn1c(=Cc2oc3ccccc3[n+]2C)sc(=C2Sc3ccccc3N2C)c1=O [Compound 25],,150,,,6,0.04
CCn1c(=CC2=[N+](CC)C(C)CS2)sc(=C2Sc3ccc4ccccc4c3N2C)c1=O (stereo not drawn) [Compound 309],4,400,0.01,,,
CCn1c(=Cc2sc3c4ccccc4ccc3[n+]2CC)sc(=C2SC=C(C)N2C)c1=O [Compound 131],6,120,0.05,,,
CCn1c(=Cc2oc3ccccc3[n+]2CC)sc(=C2Oc3ccccc3N2C)c1=O [Compound 104],18,180,0.1,,,
CCn1c(=Cc2oc3cc4ccccc4cc3[n+]2CC)sc(=C2Sc3ccc4ccccc4c3N2C)c1=O [Compound 96],20,333,0.06,,,
CCn1c(=Cc2sc3c4ccccc4ccc3[n+]2CC)sc(=C2Sc3ccc4ccccc4c3N2C)c1=O [Compound 91],,500,,,20,0.04
CCn1c(=Cc2cccc[n+]2CC)sc(=C2Sc3ccccc3N2C)c1=O [Compound 18],20,4000,0.005,,,
